The results in this text go back to US4704396A, “Phenacyl esters of 1-substituted-6-(substituted and unsubstituted) dihydrolysergic acids useful as 5HT receptor antagonists” (Eli Lilly and Company, priority 1985, dated 1987).

The assay has as its target T1, 5HT2 receptors (Rattus norvegicus, UniProt P14842).
T1 construct: from tissue; host or cells: external jugular vein of male Wistar rats
Briefly: Apparent dissociation constants (KB) against serotonin contraction in rat jugular vein. Type of assay: cell-based. The note with it: serotonin agonist, antagonist incubated one hour, read-out: 5HT2 -Log Kb ± S.E. (converted). Here is the method:
An initial optimum resting force of 1 and 4 g was applied to the jugular veins and aorta, respectively. […] Exp. Ther., 205, 400 (1978). Alpha receptor antagonist activity was evaluated in the aorta.

Structures can show the parent of a compound that is named as a salt.

T1 sequence (P14842 whole entry): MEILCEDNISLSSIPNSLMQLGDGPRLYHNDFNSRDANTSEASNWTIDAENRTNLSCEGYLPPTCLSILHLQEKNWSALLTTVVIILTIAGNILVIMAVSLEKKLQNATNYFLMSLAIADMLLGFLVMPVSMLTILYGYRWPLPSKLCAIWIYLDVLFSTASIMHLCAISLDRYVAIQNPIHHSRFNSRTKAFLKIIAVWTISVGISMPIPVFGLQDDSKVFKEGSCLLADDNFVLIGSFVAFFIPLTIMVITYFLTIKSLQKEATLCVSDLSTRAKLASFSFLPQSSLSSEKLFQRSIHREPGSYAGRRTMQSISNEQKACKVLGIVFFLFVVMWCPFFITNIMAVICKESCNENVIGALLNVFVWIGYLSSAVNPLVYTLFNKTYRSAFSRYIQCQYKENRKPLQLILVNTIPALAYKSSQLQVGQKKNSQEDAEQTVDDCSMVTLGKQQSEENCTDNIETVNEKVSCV

Broadly, the Kb is the equilibrium dissociation constant of an antagonist, usually derived from a functional assay. `CC(OC(=O)[C@@H]1C[C@@H]2c3cccc4c3c(cn4C(C)C)C[C@H]2N(C)C1)C(=O)c1ccccc1` (mixture of isomers) [R^3=CH3 R^4=H R^10=H maleate, (±)-α-Methylphenacyl 1-isopropyl-9,10-dihydrolysergate maleate]: the antagonist dissociation constant (Kb) was 4.57 nM.
As for `CC(C)n1cc2c3c(cccc31)[C@H]1C[C@@H](C(=O)OC(C)(C)C(=O)c3ccccc3)CN(C)[C@@H]1C2` [R^3=CH3 R^4=CH3 R^10=H maleate, α,α-Dimethylphenacyl 1-isopropyl-9,10-dihydrolysergate maleate monohydrate], the Kb was 14.8 nM.
Consider `CC(OC(=O)[C@@H]1C[C@@H]2c3cccc4c3c(cn4C(C)C)C[C@H]2N(C)C1)C(=O)c1ccc(O)cc1` (stereo partly drawn) [R^3=CH3 R^4=H R^10=p-OH maleate, α-Methyl-p-hydroxyphenacyl 1-isopropyl-9,10-dihydrolysergate maleate], for which the Kb was 0.347 nM.
Regarding `CC(C)n1cc2c3c(cccc31)[C@H]1C[C@@H](C(=O)OCC(=O)c3ccccc3)CN(C)[C@@H]1C2` [R^3=H R^4=H R^10=H maleate.H2 O, phenacyl 1-isopropyl-9,10-dihydrolysergate maleate monohydrate], the Kb was 15.1 nM.
In the case of `CC(C)n1cc2c3c(cccc31)[C@H]1C[C@@H](C(=O)OCC(=O)c3ccc(Cl)cc3)CN(C)[C@@H]1C2` [R^3=H R^4=H R^10=p-Cl maleate, p-Chlorophenacyl 1-isopropyl-9,10-dihydrolysergate maleate], the Kb was 34.7 nM.
As for `COc1ccc(C(=O)COC(=O)[C@@H]2C[C@@H]3c4cccc5c4c(cn5C(C)C)C[C@H]3N(C)C2)cc1` [R^3=H R^4=H R^10=p-OCH3 maleate, p-Methoxyphenacyl 1-isopropyl-9,10-dihydrolysergate maleate], the Kb was 1.29 nM.
As to `CC(C)n1cc2c3c(cccc31)[C@H]1C[C@@H](C(=O)OCC(=O)c3ccc(O)cc3)CN(C)[C@@H]1C2` [R^3=H R^4=H R^10=p-OH maleate.H2 O, p-Hydroxyphenacyl 1-isopropyl-9,10-dihydrolysergate maleate], the antagonist equilibrium constant (Kb) is 0.138 nM.
As for `CC(C)n1cc2c3c(cccc31)[C@H]1C[C@@H](C(=O)OCC(=O)c3ccc(-c4ccccc4)cc3)CN(C)[C@@H]1C2` [R^3=H R^4=H R^10=p-phenyl maleate, 4-Phenylphenacyl 1-isopropyl-9,10-dihydrolysergate maleate], the Kb is 70.8 nM.
